Measured values taken from ChEMBL document CHEMBL1159335, “Structures of new cyclic diarylheptanoids and inhibitors of nitric oxide production from Japanese folk medicine Acer nikoense” (J Nat Prod, 2003).

Columns and labels:
Macrophage [1] = test: Inhibition of LPS-induced NO production in ddY mouse peritoneal macrophages at 10 uM by Griess reagent method; format: functional
Macrophage [2] = test: Inhibition of LPS-induced NO production in ddY mouse peritoneal macrophages at 1 uM by Griess reagent method; format: functional
Macrophage [3] = test: Inhibition of LPS-induced NO production in ddY mouse peritoneal macrophages at 30 uM by Griess reagent method; format: functional
Macrophage [4] = test: Inhibition of LPS-induced NO production in ddY mouse peritoneal macrophages at 100 uM by Griess reagent method; format: functional
Macrophage [5] = test: Inhibition of LPS-induced NO production in ddY mouse peritoneal macrophages by Griess reagent method; format: functional, cell-based
[6] = Cytotoxicity against ddY mouse macrophages after 20 hrs by MTT assay; format: cell-based; conditions: macrophage
Macrophage [7] = test: Inhibition of LPS-induced NO production in ddY mouse peritoneal macrophages at 3 uM by Griess reagent method; format: functional

| SMILES | IC50 (Macrophage [5]) [µM] | inhibition at 10 µM (Macrophage [1]) [%] | inhibition at 1 µM (Macrophage [2]) [%] | inhibition at 30 µM (Macrophage [3]) [%] | inhibition at 100 µM (Macrophage [4]) [%] | Activity [6] | inhibition at 3 µM (Macrophage [7]) [%] |
| --- | --- | --- | --- | --- | --- | --- | --- |
| Oc1ccc(CCCC[C@@H](O)CCc2ccc(O)cc2)cc1 | 73 | -1.1 | -1.3 | 10.7 | 67.2 | Non-toxic | 1.3 |
| O=C1CCCCc2ccc(O)c(c2)-c2cc(ccc2O)CC1 [ACEROGENIN E] | 24 | 13.6 | 0.1 | 59.4 | 81.2 | Non-toxic | 3.3 |

Now from value to compound, other results behind:

| IC50 (Macrophage [5]) [µM] | SMILES | inhibition at 10 µM (Macrophage [1]) [%] | inhibition at 1 µM (Macrophage [2]) [%] | inhibition at 30 µM (Macrophage [3]) [%] | inhibition at 100 µM (Macrophage [4]) [%] | Activity [6] | inhibition at 3 µM (Macrophage [7]) [%] |
| --- | --- | --- | --- | --- | --- | --- | --- |
| 74 | Oc1ccc2cc1Oc1ccc(cc1)CC[C@H](O)CCCC2 [ACEROGENIN A] | 11.6 | 6.7 | 22.2 | 61.4 | Non-toxic | 5.8 |
| 88 | Oc1ccc2cc1Oc1ccc(cc1)CCCC[C@H](O)CC2 [ACEROGENIN B] | -0.2 | 1.9 | 17.6 | 54.1 | Non-toxic | -0.5 |
| 25 | Oc1ccc2cc1-c1cc(ccc1O)CCC(O)CCCC2 (stereo not given) [ACEROGENIN K] | 24.3 | 6.6 | 56.6 | 91.3 | Non-toxic | 2.1 |
